Measured values reported in US6646006B2, “Enhancement of vascular function by modulation of endogenous nitric oxide production or activity” (The Board of Trustees of the Leland Stanford Junior …, priority 1993, dated 2003).

Legend:
[1] = test system: forearm resistance vessels; test: Forearm blood flow response to methacholine (plethysmography) after intravenous L-arginine; assay type: in vivo, human
From the text: The control subject population in this study included 11 normal volunteers comprising (10 males and 1 female). Their ages ranged from 31 to 49 and averaged 39±2 yr. There were 14 patients with hypercholesterolemia. Hypercholesterolemia was defined as a serum LDL cholesterol level greater than the 75th percentile adjusted for age and sex. These individuals included 11 males and 3 females whose ages ranged from 22 to 48 and averaged 38±2 years.
Under local anesthesia and sterile conditions, a polyethylene catheter was inserted into a brachial artery of each subject for determination of blood pressure and for infusion of drugs. A separate polyethylene catheter was inserted into the antecubital vein for infusion of L-arginine. Bilateral forearm blood flow was determined by venous occlusion strain gauge plethysmography, using calibrated mercury-in-silastic strain gauges, and expressed as ml/100 ml tissue per min.
To assess NO-dependent vasodilation, methacholine chloride (which induces the endothelium to release NO) was administered via the brachial artery. Forearm blood flow was measured during infusion of methacholine chloride at concentrations of 0.3, 3, and 10 μg/min each for 3 min.
After completion of the methacholine chloride infusions, all normal subjects and 10 individuals with hypercholesterolemia were given L-arginine intravenously over 30 minutes and then the methacholine infusions were repeated. D-arginine, the enantiomer of L-arginine, is not a precursor of NO. Thus, to ensure that any observed effects of L-arginine were due to its contribution to the synthesis of NO and not just secondary to its physiochemical properties, five individuals with hypercholesterolemia received D-arginine intravenously.

[2] = test system: monocytes; test: Functional binding assay: rabbit blood mononuclear cells to bEnd3 endothelial cells; assay type: in vivo; conditions: Arg vs vehicle-treated Chol animals
From the text: To determine if oral arginine supplementation affects monocyte adherence, blood was collected from rabbits fed normal chow (=6) a 1% cholesterol diet (=6), or a 1% cholesterol diet supplemented with L-arginine (=6), as described above. Mononuclear cells were purified from blood by Ficoll-paque density gradient centrifugation. In these preliminary studies, adhesion was examined of blood leukocytes to a transformed endothelial cell line, bEnd3 (mouse brain-derived polyoma middle T antigen transformed endothelial cells). The Bend3 cells display the morphology of endothelial cells, and like human endothelial cells are capable of uptake of acetylated low-density lipoprotein and express adhesion molecules in a cytokine-regulatable fashion. Cultured cells were grown to confluence in 0.5 cm^2 Lab-Tek chamber slides (MilesScientific) and treated with control medium or with LPS (1 mg/ml) or TNFα (25 U/ml) for 18 hours. Cultures were washed with fresh assay buffer, and low, medium, or high concentrations of leukocytes (0.75, 1.5, or 3×10^5 cells/ml, respectively) were added per well. Following a 30-minute incubation on a rocking platform at room temperature to allow binding, the slides were inverted and immersed in buffer containing 2% (v/v) glutaraldehyde, such that non-adherent cells were lost and adherent cells were fixed to the monolayer. […]

[3] = test system: platelets; test: Platelet aggregometry in hypercholesterolemic humans after oral L-arginine; assay type: in vivo, human
From the text: FIG. 13 is a set of histograms showing aggregation of platelets obtained in hypercholesterolemic humans (hc), and individuals with normal cholesterol levels (nc). Platelet aggregation ex vivo in response to adenosine diphosphate (ADP) is increased in hc individuals in comparison to normal individuals. […] (See Ex. 16)
In this study we tested the hypothesis that chronic L-arginine supplementation would inhibit platelet reactivity in hypercholesterolemic humans. Venous blood was collected from normal (NC; n=11) and hypercholesterolemic (HC; n=22) volunteers for isolation of platelet-rich plasma and aggregometry. […]

[4] = test system: hypercholesterolemic rabbits; test: Organ chamber studies of isolated vessels from cholesterol-fed rabbits; assay type: in vivo, rabbit
From the text: (§1) Study design: (See, Cooke et al., 1992, supra) Male New Zealand white rabbits (n=49) were assigned to one of three treatment groups: 10 were fed with normal rabbit chow for ten weeks (Control); 19 received chow enriched with 1% cholesterol (Chol); and 20 received a 1% cholesterol diet supplemented with 2.25% L-arginine hydrochloride in the drinking water (Arg.). […] Subsequently the animals were sacrificed and the left main coronary artery and the thoracic aorta were harvested for studies of vascular reactivity and histomorphometry. In some animals, blood was collected for studies of platelet and monocyte reactivity.
By contrast, NO-dependent relaxations were attenuated in vessels harvested from hypercholesterolemic animals with a reduction in the maximal response to acetylcholine. In comparison, vessels harvested from hypercholesterolemic animals receiving L-arginine supplementation had improved NO-dependent relaxation to acetylcholine. In a separate study, the effect of chronic arginine supplementation to improve NO-dependent relaxation was confirmed in the hypercholesterolemic rabbit abdominal aorta.

[5] = test system: hypercholesterolemic rabbits; test: Histomorphometry and lesion surface area planimetry of thoracic aorta and left main coronary artery; assay type: in vivo, rabbit
From the text: as §1
By contrast, the intimal cross-sectional area (i.e. amount of atherosclerotic plaque) of vessels from hypercholesterolemic animals receiving L-arginine supplementation was reduced in comparison to those from animals receiving cholesterol diet alone. In the Arg animals the reduction in the intimal lesion was most pronounced in the ascending thoracic aorta and left main coronary artery.
Changes in lesion surface area: In a second series of studies, the extent of the thoracic aorta involved by lesions was examined. In hypercholesterolemic rabbits receiving vehicle (n=6) or L-arginine supplement (n=6), thoracic aortae (from left subclavian artery to diaphragm) were harvested after ten weeks of treatment, bisected longitudinally, and stained with oil-red O. Vessels were photographed and vessel and lesion surface area determined by planimetry. Approximately 40% of the total surface area was covered with plaque in thoracic aortae from hypercholesterolemic animals receiving vehicle, whereas in thoracic aortae from arginine-treated hypercholesterolemic animals, less than 10% of the surface area was covered with plaque (FIG. 1).

[6] = set-up: species or system human; conditions: in vivo, po
Experimental: The control subject population in this study included 12 normal volunteers, (10 males and 2 females), with an average age of 37±2 yrs. Normalcy was determined by a careful history, physical examination, and laboratory analysis to exclude individuals with hematologic, renal, or hepatic dysfunction or clinically evident atherosclerosis. There were 20 patients (10 males and 10 females) with hypercholesterolemia as defined by a total plasma cholesterol greater than 240 mg/dl and a LDL cholesterol level greater than 160 mg/dl. […] None of the subjects were taking diuretics, vasoactive medications, antiplatelet or hypolipidemic medications. This study was approved by the Stanford University Administrative Panel on Human Subjects in Medical Research and each subject gave written informed consent before entry into the study. Blood was drawn from each subject in the postabsorptive state.
Results. Oral administration of L-arginine ([…] for 2 weeks) to hypercholesterolemic humans increased plasma arginine values by 60% (from […]; n=7), whereas L-arginine values in the placebo-treated (n=3) and normocholesterolemic (n=6) groups remained unchanged.

## N=C(N)NCCC[C@H](N)C(=O)O [L-arginine]
[1]; hypercholesterolemic subjects, intravenous over 30 minutes
  augmentation of the vasodilation to methacholine chloride: 25%
[1]; intravenous
  complications or side-effects of the infusions: no complications or side-effects
[1]; normal subjects, intravenous over 30 minutes
  vasodilation during methacholine chloride: did not potentiate
[2]
  adherence of monocytes to bEnd3 cells: much less adherent
[3]; 2 weeks of oral L-arginine
  platelet aggregation in response to ADP: attenuated
[3]; two weeks, collagen 5 mg/ml
  aggregability of HC platelets: reduced
[4]; differences between treatment groups
  NO-independent responses: maximal response or sensitivity to norepinephrine or nitroglycerin: no differences
[4]; vs hypercholesterolemic animals without supplement
  NO-dependent relaxation to acetylcholine: improved
[5]; hypercholesterolemic animals receiving arginine
  atherosclerotic plaque in the left main coronary artery: essentially no atherosclerotic plaque developed
[5]; ten weeks, oil-red O, planimetry
  surface area of thoracic aorta covered with plaque: less than 10%
[5]; vs cholesterol diet alone
  intimal cross-sectional area (amount of atherosclerotic plaque): reduced
[6]; human, 2 weeks
  increase of plasma arginine values: 60%
  plasma arginine value after treatment: 128 ± 12 mM
[6]
  effect on biochemical or hematologic parameters: no effect
  tolerability: well tolerated
